Results as given in ChEMBL document CHEMBL1201862, “PubChem BioAssay data set” (2004).
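Assay format: 96-well plates, 48-hour exposure. GI50 is the concentration that inhibits growth by half.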 Active and inactive are the calls of the source. Rule as the data show it: active = GI50 up to about 1.1 µM and inactive = higher.

Experiments:
Assay in all cases: growth of human tumour cells (NCI), 48 h
NCI-H23 = test system: NCI-H23
UO-31 = test system: UO-31
HOP-62 = test system: HOP-62
M19-MEL = test system: M19-MEL
RPMI-8226 = test system: RPMI-8226
CCRF-CEM = test system: CCRF-CEM
A498 = test system: A498
SF-268 = test system: SF-268
IGROV-1 = test system: IGROV-1
K562 = test system: K562
SNB-75 = test system: SNB-75
SF-539 = test system: SF-539
UACC-62 = test system: UACC-62
OVCAR-3 = test system: OVCAR-3
OVCAR-5 = test system: OVCAR-5
CAKI-1 = test system: CAKI-1
MDA-N = test system: MDA-N
MCF7 = test system: MCF7
MDA-MB-231 = test system: MDA-MB-231
MDA-MB-435 = test system: MDA-MB-435

Measured: GI50

COc1ccc2c3ccc4c(c3n(C)c2c1)C(=O)C=CC4=O
inactive: NCI-H23 52.1 µM | UO-31 20.5 µM | HOP-62 > 100 µM | M19-MEL 18.3 µM | RPMI-8226 6.41 µM | CCRF-CEM 2.93 µM | A498 > 100 µM | SF-268 44.3 µM | IGROV-1 > 100 µM | K562 5.92 µM | SNB-75 > 100 µM | SF-539 20.8 µM | UACC-62 40.3 µM

CC(C)=CCCC1(C)C=Cc2c(c(C)cc3c2[nH]c2cc(O)ccc23)O1 (stereo not given)
inactive: OVCAR-3 > 25 µM | UO-31 > 25 µM | HOP-62 > 25 µM | OVCAR-5 > 25 µM | M19-MEL > 25 µM | RPMI-8226 > 25 µM | CCRF-CEM > 25 µM | SF-268 > 25 µM | IGROV-1 > 25 µM | K562 > 25 µM | SF-539 > 25 µM | UACC-62 > 25 µM

COc1ccc(/C=C/COC(C)=O)cc1OC
inactive: OVCAR-3 > 100 µM | NCI-H23 > 100 µM | UO-31 > 100 µM | OVCAR-5 > 100 µM | M19-MEL > 100 µM | RPMI-8226 > 100 µM | SF-268 > 100 µM | IGROV-1 > 100 µM | K562 > 100 µM | CAKI-1 > 100 µM | SNB-75 > 100 µM | SF-539 > 100 µM | UACC-62 > 100 µM

Cc1ccc([S+]([O-])c2ccccc2[N+](=O)[O-])cc1 (stereo not given)
inactive: OVCAR-3 73.8 µM | NCI-H23 32.6 µM | UO-31 51.2 µM | HOP-62 > 100 µM | OVCAR-5 72.1 µM | M19-MEL 10 µM | RPMI-8226 52.8 µM | CCRF-CEM 28.6 µM | A498 28.1 µM | IGROV-1 65.9 µM | K562 64.4 µM | CAKI-1 43.9 µM | SF-539 58.5 µM | UACC-62 > 100 µM

CCOC(=O)C(C)(C)Oc1ccc(/C=C/C(=O)c2ccc(Cl)cc2)cc1
inactive: OVCAR-3 16.3 µM | NCI-H23 18.6 µM | UO-31 35.2 µM | HOP-62 39.4 µM | M19-MEL 20 µM | RPMI-8226 10.9 µM | CCRF-CEM 17.2 µM | A498 20.2 µM | SF-268 19.1 µM | IGROV-1 17.3 µM | K562 14.3 µM | SNB-75 15.2 µM | SF-539 19.5 µM | UACC-62 20.6 µM

O=C(O)C(CS)Nc1c2ccccc2nc2ccccc12 (stereo not given)
inactive: OVCAR-3 49.9 µM | NCI-H23 91.8 µM | UO-31 26 µM | OVCAR-5 53.5 µM | M19-MEL 57 µM | RPMI-8226 48.2 µM | CCRF-CEM 79.3 µM | SF-268 > 100 µM | IGROV-1 > 100 µM | K562 49.7 µM | CAKI-1 44.7 µM | SNB-75 > 100 µM | SF-539 50 µM

COc1ccc2c(c1)CCc1c(C(C)=O)c3ccccc3n1C2
inactive: OVCAR-3 12.1 µM | NCI-H23 16.5 µM | UO-31 11.7 µM | HOP-62 26.4 µM | OVCAR-5 > 100 µM | M19-MEL 57.5 µM | CCRF-CEM 63.4 µM | SF-268 29.1 µM | IGROV-1 19.3 µM | K562 6.37 µM | CAKI-1 24 µM | SNB-75 33.4 µM | SF-539 20.7 µM | UACC-62 25.6 µM

CC(=O)n1cc(CC(C)O)c(=O)[nH]c1=O (stereo not given)
inactive: OVCAR-3 > 100 µM | NCI-H23 > 100 µM | UO-31 > 100 µM | HOP-62 > 100 µM | OVCAR-5 > 100 µM | M19-MEL > 100 µM | RPMI-8226 > 100 µM | A498 > 100 µM | SF-268 > 100 µM | IGROV-1 > 100 µM | K562 > 100 µM | CAKI-1 > 100 µM | SNB-75 > 100 µM | SF-539 > 100 µM | UACC-62 > 100 µM

CS(=O)(=O)C1S(=O)(=O)OCCOS1(=O)=O
inactive: OVCAR-3 > 100 µM | NCI-H23 > 100 µM | UO-31 > 100 µM | HOP-62 > 100 µM | OVCAR-5 > 100 µM | M19-MEL > 100 µM | RPMI-8226 > 100 µM | A498 > 100 µM | SF-268 > 100 µM | IGROV-1 > 100 µM | K562 > 100 µM | CAKI-1 > 100 µM | SNB-75 > 100 µM | SF-539 > 100 µM | UACC-62 > 100 µM

CC#CCC1CCC(OCC)=CC1=O (stereo not given)
inactive: OVCAR-3 > 100 µM | NCI-H23 > 100 µM | UO-31 > 100 µM | HOP-62 > 100 µM | OVCAR-5 > 100 µM | M19-MEL > 100 µM | RPMI-8226 > 100 µM | CCRF-CEM > 100 µM | SF-268 > 100 µM | IGROV-1 > 100 µM | K562 > 100 µM | CAKI-1 > 100 µM | SNB-75 > 100 µM | SF-539 > 100 µM | UACC-62 > 100 µM

CC(C)(C)c1ccc2c(c1)S(=O)(=O)Nc1cccc(c1)NS(=O)(=O)c1cc(C(C)(C)C)ccc1OCCOCCO2
inactive: OVCAR-3 > 100 µM | NCI-H23 > 100 µM | UO-31 > 100 µM | HOP-62 > 100 µM | OVCAR-5 > 100 µM | M19-MEL > 100 µM | RPMI-8226 23.6 µM | A498 > 100 µM | SF-268 > 100 µM | IGROV-1 > 100 µM | K562 > 100 µM | CAKI-1 > 100 µM | SNB-75 > 100 µM | SF-539 > 100 µM | UACC-62 > 100 µM

OC1OC2COC(c3ccccc3)OC2C(O)C1O (stereo not given)
inactive: OVCAR-3 > 100 µM | NCI-H23 > 100 µM | UO-31 > 100 µM | HOP-62 > 100 µM | OVCAR-5 > 100 µM | M19-MEL > 100 µM | RPMI-8226 > 100 µM | CCRF-CEM > 100 µM | A498 > 100 µM | SF-268 > 100 µM | IGROV-1 > 100 µM | K562 > 100 µM | CAKI-1 > 100 µM | SF-539 > 100 µM | UACC-62 > 100 µM

N#CC(NNC(=O)c1ccccc1O)c1ccccc1O (stereo not given)
inactive: OVCAR-3 2.52 µM | NCI-H23 2.06 µM | UO-31 2.91 µM | HOP-62 8.45 µM | OVCAR-5 27.1 µM | M19-MEL 4.45 µM | RPMI-8226 4.03 µM | CCRF-CEM 2.06 µM | SF-268 2.29 µM | IGROV-1 2.6 µM | K562 5.43 µM | CAKI-1 3.27 µM | SNB-75 18.5 µM | SF-539 4.06 µM | UACC-62 2.72 µM

Cc1ccc(S(=O)(=O)N/N=C(\c2nc3ccc(Cl)cc3[nH]c2=O)C(O)c2ccco2)cc1 (stereo not given)
inactive: OVCAR-3 > 100 µM | NCI-H23 > 100 µM | OVCAR-5 > 100 µM | M19-MEL > 100 µM | CCRF-CEM 7.5 µM | A498 > 100 µM | SF-268 > 100 µM | IGROV-1 > 100 µM | K562 42.3 µM | CAKI-1 > 100 µM | SNB-75 > 100 µM | SF-539 > 100 µM | UACC-62 > 100 µM

Cc1cn(C2CC(O)C(COC(=O)c3ccccc3)O2)c(=O)[nH]c1=O (stereo not given)
inactive: OVCAR-3 > 100 µM | NCI-H23 > 100 µM | HOP-62 > 100 µM | OVCAR-5 > 100 µM | M19-MEL > 100 µM | RPMI-8226 > 100 µM | CCRF-CEM > 100 µM | A498 > 100 µM | SF-268 > 10 µM | IGROV-1 > 100 µM | K562 > 100 µM | CAKI-1 > 100 µM | SF-539 > 100 µM | UACC-62 > 100 µM

CC(C)(C)C(=O)/C=C/c1ccc(Oc2ccccc2)cc1
inactive: NCI-H23 > 10 µM | UO-31 15.8 µM | HOP-62 27.4 µM | OVCAR-5 19.3 µM | M19-MEL 23.5 µM | RPMI-8226 8.95 µM | CCRF-CEM 10.4 µM | A498 14.5 µM | SF-268 22 µM | IGROV-1 30.8 µM | K562 7.03 µM | SNB-75 23.4 µM | SF-539 > 10 µM

CC(C)[Si](Oc1cc2c3c(ccc2c(O)c1[C@@H](C)CO[Si](C)(C)C(C)(C)C)C(C)(C)CCC3)(C(C)C)C(C)C
inactive: OVCAR-3 86.1 µM | MDA-N > 100 µM | NCI-H23 > 100 µM | UO-31 > 100 µM | HOP-62 > 100 µM | OVCAR-5 > 100 µM | MCF7 > 100 µM | RPMI-8226 49.8 µM | CCRF-CEM 43.4 µM | A498 > 100 µM | SF-268 > 100 µM | IGROV-1 87.5 µM | K562 43.7 µM | CAKI-1 > 100 µM | SNB-75 69.8 µM | MDA-MB-231 > 100 µM | SF-539 > 100 µM | UACC-62 > 100 µM | MDA-MB-435 > 100 µM

Cn1c(=O)c2nc3sc4ccccc4c(=N)n3c2n(C)c1=O
inactive: NCI-H23 > 100 µM | UO-31 > 100 µM | HOP-62 > 100 µM | OVCAR-5 > 100 µM | M19-MEL > 100 µM | CCRF-CEM > 100 µM | A498 > 100 µM | SF-268 > 100 µM | IGROV-1 > 100 µM | K562 > 100 µM | CAKI-1 > 100 µM | SF-539 > 100 µM | UACC-62 > 100 µM

CC1=C(C(=O)NCc2ccccc2)C(c2ccccc2[N+](=O)[O-])C(C(=O)NCc2ccccc2)=C(C)N1
inactive: OVCAR-3 5.31 µM | NCI-H23 12.3 µM | UO-31 13.9 µM | HOP-62 20.6 µM | OVCAR-5 22.1 µM | M19-MEL 11.4 µM | CCRF-CEM 6.89 µM | A498 18.2 µM | SF-268 9.18 µM | IGROV-1 18.4 µM | K562 5.08 µM | CAKI-1 21.3 µM | SNB-75 13.6 µM | SF-539 8.09 µM | UACC-62 8.49 µM
